Tests used:
Assay in all cases: relative viability (nuclei count vs DMSO), 5 days (fraction); higher = more cells survive
[1] = compound: CC[C@@H](C)CNCC(=O)N1CCC2=C([C@@H]1COC3=CC=CC(=C3)C)C=CS2 [RU-SKI 43] + CC(=O)c1c(C)c2cnc(Nc3ccc(N4CCNCC4)cn3)nc2n(C2CCCC2)c1=O [Palbociclib] (partner 0.5 µM)
How it was run: (§1)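 Cells from lung cancer lines were seeded into 1536-well plates and, one day later, dosed by pin tool. Treatments were either a single drug or a fixed dose of an anchor drug with five library-drug doses (not always all listed) in √10 steps. After 5 days, nuclei were stained in a one-step fixation (final 0.05% Triton X-100, 1% formaldehyde, 1 ug/ml Hoechst) and counted on 4× images, and relative viability is the treated-to-vehicle nuclei ratio, as the median of duplicate plates.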

[2] = compound: CC[C@@H](C)CNCC(=O)N1CCC2=C([C@@H]1COC3=CC=CC(=C3)C)C=CS2 [RU-SKI 43] + N=C(N)NC(=N)NCCc1ccccc1 [Phenformin] (partner 250 µM)
How it was run: as §1

[3] = compound: CCc1c2c(nc3ccc(OC(=O)N4CCC(N5CCCCC5)CC4)cc13)-c1cc3c(c(=O)n1C2)COC(=O)[C@]3(O)CC [Irinotecan] + C[C@@H](Oc1cc(-c2cnn(C3CCNCC3)c2)cnc1N)c1c(Cl)ccc(F)c1Cl [Crizotinib] (partner 1 µM)
How it was run: as §1

[4] = compound: Cn1cc(-c2cnc3ccc4ccc(CS(=O)(=O)NCc5ccccn5)cc4c(=O)c3c2)cn1 [MK-8033] + CC(C)C[C@H](NC(=O)[C@H](Cc1ccccc1)NC(=O)c1cnccn1)B(O)O [Bortezomib] (partner 0.002 µM)
How it was run: as §1

PC-3 [JPC-3]
relative viability ([1]; first compound 0.1 µM): 0.534
relative viability ([1]; first compound 0.3162 µM): 0.479
relative viability ([1]; first compound 1 µM): 0.561
relative viability ([1]; first compound 3.162 µM): 0.558
relative viability ([1]; first compound 10 µM): 0.343
relative viability ([2]; first compound 0.1 µM): 0.466
relative viability ([2]; first compound 0.3162 µM): 0.484
relative viability ([2]; first compound 1 µM): 0.457
relative viability ([2]; first compound 3.162 µM): 0.52
relative viability ([2]; first compound 10 µM): 0.511
relative viability ([3]; first compound 0.6325 µM): 0.847
relative viability ([3]; first compound 2 µM): 0.493
relative viability ([3]; first compound 6.325 µM): 0.332
relative viability ([3]; first compound 20 µM): 0.331
relative viability ([4]; first compound 0.02 µM): 0.813
relative viability ([4]; first compound 0.2 µM): 0.778
relative viability ([4]; first compound 0.6325 µM): 0.848
relative viability ([4]; first compound 2 µM): 0.943

NCI-H2085
relative viability ([1]; first compound 0.1 µM): 0.514
relative viability ([1]; first compound 0.3162 µM): 0.444
relative viability ([1]; first compound 1 µM): 0.467
relative viability ([1]; first compound 3.162 µM): 0.48
relative viability ([1]; first compound 10 µM): 0.461
relative viability ([2]; first compound 0.1 µM): 0.758
relative viability ([2]; first compound 0.3162 µM): 0.652
relative viability ([2]; first compound 1 µM): 0.709
relative viability ([2]; first compound 3.162 µM): 0.698
relative viability ([2]; first compound 10 µM): 0.631
relative viability ([3]; first compound 0.6325 µM): 0.845
relative viability ([3]; first compound 2 µM): 0.622
relative viability ([3]; first compound 6.325 µM): 0.511
relative viability ([3]; first compound 20 µM): 0.537
relative viability ([4]; first compound 0.02 µM): 0.956
relative viability ([4]; first compound 0.06325 µM): 0.941
relative viability ([4]; first compound 0.2 µM): 0.98
relative viability ([4]; first compound 0.6325 µM): 1.08
relative viability ([4]; first compound 2 µM): 0.963

NCI-H1650
relative viability ([1]; first compound 0.1 µM): 0.375
relative viability ([1]; first compound 0.3162 µM): 0.346
relative viability ([1]; first compound 1 µM): 0.338
relative viability ([1]; first compound 3.162 µM): 0.351
relative viability ([1]; first compound 10 µM): 0.302
relative viability ([2]; first compound 0.1 µM): 0.423
relative viability ([2]; first compound 0.3162 µM): 0.314
relative viability ([2]; first compound 1 µM): 0.445
relative viability ([2]; first compound 3.162 µM): 0.386
relative viability ([2]; first compound 10 µM): 0.336
relative viability ([3]; first compound 0.6325 µM): 0.918
relative viability ([3]; first compound 2 µM): 1.23
relative viability ([3]; first compound 6.325 µM): 0.391
relative viability ([3]; first compound 20 µM): 0.179
relative viability ([4]; first compound 0.02 µM): 0.198
relative viability ([4]; first compound 0.06325 µM): 0.181
relative viability ([4]; first compound 0.2 µM): 0.197
relative viability ([4]; first compound 0.6325 µM): 0.234
relative viability ([4]; first compound 2 µM): 0.218

NCI-H1993
relative viability ([1]; first compound 0.1 µM): 0.611
relative viability ([1]; first compound 0.3162 µM): 0.727
relative viability ([1]; first compound 1 µM): 0.697
relative viability ([1]; first compound 3.162 µM): 0.748
relative viability ([1]; first compound 10 µM): 0.613
relative viability ([2]; first compound 0.1 µM): 0.526
relative viability ([2]; first compound 0.3162 µM): 0.5
relative viability ([2]; first compound 1 µM): 0.471
relative viability ([2]; first compound 3.162 µM): 0.511
relative viability ([2]; first compound 10 µM): 0.487
relative viability ([3]; first compound 0.6325 µM): 0.897
relative viability ([3]; first compound 2 µM): 0.656
relative viability ([3]; first compound 6.325 µM): 0.671
relative viability ([3]; first compound 20 µM): 0.664
relative viability ([4]; first compound 0.02 µM): 0.498
relative viability ([4]; first compound 0.06325 µM): 0.804
relative viability ([4]; first compound 0.2 µM): 0.794
relative viability ([4]; first compound 0.6325 µM): 0.816
relative viability ([4]; first compound 2 µM): 0.853
